What all share (test): DTP human tumour cell line panel, 48 h
Assay [1] has as its system SK-OV-3 ovarian.
The test system of assay [2] is HCT-15 colon.
The test system of assay [3] is HOP-62 NSCLC.
Assay [4] deals with UACC-257 melanoma.
Assay [5] relates to NCI/ADR-RES ovarian.
Assay [6] has as its system HOP-92 NSCLC.
The test system of assay [7] is SNB-19 CNS.
In assay [8] the test system is NCI-H460 lung.
Assay [9] concerns K-562 leukemia.
Assay [10] concerns PC-3 prostate.

SMILES strings stand for the structures.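 The compound was tested at five concentrations on cells cultured in 96-well plates, with a 48-hour exposure period. At the GI50, growth is halved. Definition used: TGI = concentration required for complete inhibition of growth.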

The values below come from PubChem BioAssay (NCI).

Take `O=C(O[C@H]1CN[C@H](C#Cc2cc3ncnc(Nc4ccc(Cc5ccccc5)cc4)c3s2)C1)N1CCOCC1`: the 50% growth inhibitory concentration (GI50) in assay [1] is 0.033 µM; in assay [2] it was 7.08 µM; in assay [3], 5.15 µM; in [4] it was 5.46 µM; in assay [5], 5.72 µM; in assay [6], 1.7 µM. In addition, the GI50 in [7] was 7.73 µM; in assay [8], 7.52 µM; in assay [9], 8.44 µM; in assay [10] it was 8.56 µM. Moreover, the concentration for total growth inhibition (TGI) in assay [1] was greater than 25 µM; in assay [2], greater than 25 µM; in assay [3], greater than 14.1 µM; in assay [4], greater than 22.1 µM; in assay [5], greater than 23.8 µM; in assay [6] it was 11.5 µM. The TGI in assay [7], in assay [8], in [9] and in [10] was greater than 25 µM each time.

Take `C[C@H]1O[C@@H](O[C@H]2[C@@H](O)C[C@H](O[C@H]3[C@@H](O)C[C@H](O[C@H]4CC[C@]5(C)C6C[C@@H](O)[C@]7(C)[C@@H](C8=CC(=O)OC8)CC[C@]7(O)C6CC[C@@H]5C4)O[C@@H]3C)O[C@@H]2C)C[C@H](O)[C@@H]1O` (some centres not stated): the GI50 in [1] was 0.0821 µM; in assay [2], 0.128 µM; in [3], 0.038 µM; in assay [4], 0.101 µM; in assay [5] it was 0.0552 µM; in [6], 0.112 µM. The concentration for 50% growth inhibition (GI50) was 0.175 µM in assay [7], 0.0197 µM in assay [8], 0.117 µM in assay [9] and 0.0573 µM in assay [10]. Further, the total growth inhibition concentration (TGI) in [1] stood at 0.164 µM; in assay [2], 0.366 µM; in assay [3], 0.102 µM; in assay [4] it was 0.237 µM; in [5], 0.147 µM; in assay [6], 0.529 µM. Also, the TGI in assay [7] amounted to 0.678 µM; in assay [8] it was 0.0748 µM; in [9] it was 0.413 µM; in assay [10] it was 0.783 µM.

For the compound `COC(=O)c1c2c(c[n+]([O-])c1C)C(=O)C(NCc1ccccc1)=CC2=O`, the GI50 in [1] was 1.98 µM; in [2] it was 0.354 µM; in assay [3], 1.42 µM; in [4], 0.257 µM; in assay [5], 0.302 µM; in assay [6], 1.04 µM. The GI50 is 1.46 µM in assay [7], 0.425 µM in [8], 0.529 µM in [9] and 0.274 µM in [10]. Besides, the TGI worked out at 4.79 µM in assay [1]; 1.53 µM in assay [2]; 2.94 µM in assay [3]; 0.734 µM in assay [4]; 1.37 µM in assay [5]; 2.72 µM in assay [6]. The TGI in assay [7] turned out to be 2.77 µM; in assay [8], 1.65 µM; in [10], 1.91 µM.

As to `COc1cc2c3c(n(CCCN=[N+]=[N-])c(=O)c2cc1OC)-c1ccc(N)cc1C3=O`, the GI50 is 0.277 µM in assay [1]; 0.378 µM in assay [2]; 0.118 µM in [3]; 0.431 µM in [4]; 0.316 µM in assay [5]; 0.163 µM in assay [6]. Further, the 50% growth inhibitory concentration (GI50) in [7] was 0.125 µM; in [8], 0.0265 µM; in assay [9], 0.177 µM; in assay [10] it was 0.27 µM. For the same compound, the concentration for total growth inhibition (TGI) in assay [1] was determined as 0.716 µM; in assay [2] it was 2.46 µM; in assay [3] it was 0.666 µM; in assay [4] it was 1.49 µM; in assay [5], 1.41 µM; in assay [6], 0.86 µM. In addition, the figures for the TGI in assay [8] and in assay [10] were 0.139 µM and 3.58 µM, respectively.

On to `O=C(/C=C/c1ccccc1O)c1ccccc1`, for which the GI50 in assay [1] is 31.5 µM; in [2] it was 10.6 µM; in assay [3] it was 17.2 µM; in assay [4], 12.1 µM; in assay [5] it was 21.7 µM; in [6], 8.77 µM. Further, the GI50 in assay [7] is 12.6 µM; in assay [8], 14.2 µM; in assay [9] it was 2.51 µM; in assay [10] it was 7.13 µM. The total growth inhibition concentration (TGI) in [1] was greater than 100 µM; in assay [2] it was 24.7 µM; in assay [3] it was 52.7 µM; in [4] it was 25.3 µM; in assay [5], greater than 100 µM; in [6] it was 23 µM. The concentration for total growth inhibition (TGI) came to 25.3 µM in assay [7], 29 µM in assay [8], 14.1 µM in assay [9] and 41.6 µM in [10].

`Cn1c(=O)c(Sc2ccccc2F)cc2cnc(NC3CCOCC3)nc21`: the GI50 in [1], in assay [2], in assay [3], in [4], in assay [5] and in [6] was greater than 25 µM throughout. In addition, the GI50 in assay [7], in assay [8], in assay [9] and in [10] was greater than 25 µM each time. For the same compound, the total growth inhibition concentration (TGI) in assay [1], in [2], in [3], in [4], in assay [5] and in assay [6] was greater than 25 µM throughout. In addition, the TGI in assay [7], in assay [8], in [9] and in assay [10] was greater than 25 µM in each case.

With `COc1c(Nc2ncc(Cl)c(N[C@@H]3[C@H]4C=CC(C4)[C@@H]3C(N)=O)n2)ccc2c1CC[C@@H](N1CCOCC1)CC2`, the GI50 was 3.43 µM in assay [1]; 3.28 µM in [2]; 2.08 µM in assay [3]; 4.81 µM in assay [4]; 4.58 µM in assay [5]; 1.05 µM in assay [6]. Besides, the GI50 is 9.37 µM in assay [7], 4.19 µM in [8], 5.52 µM in assay [9] and 3.94 µM in assay [10]. Besides, the TGI is 15.2 µM in assay [1]; 15.3 µM in [2]; 15 µM in assay [3]; 19.8 µM in [4]; 24.4 µM in assay [5]; 6.77 µM in [6]. Moreover, the TGI was found to be 29.5 µM in assay [7], 18.2 µM in assay [8], 59.7 µM in assay [9] and 23.7 µM in assay [10].

The GI50 is the concentration that inhibits growth by half. In general, TGI refers to the concentration at which net growth stops. Low readings indicate more potent growth arrest, high ones less potent growth arrest.
